# Legend:
# [1] = tested on: BALB/c nude mice; details: mouse, in vivo
# Description: Eight-week-old male BALB/c nude mice were used to assess in vivo cardiac uptake and bio-distribution of sulfo-Cyanine7-labeled AID(S)-TAT and AID-TAT (Cy7, W&J PharmaChem) using a CRi Maestro 2 multispectral imaging system (Cambridge Research and Instrumentation) based on previously described methods ([63]). All studies were performed in mice anesthetized with isoflurane (2 to 4%), followed by intraperitoneal injection of pentobarbitone sodium (240 mg/kg), as approved by the Animal Ethics Committee of The University of Western Australia in accordance with the 2013 Australian Code for the Care and Use of Animals for Scientific Purposes ([58]). Detailed methods are provided in SI Appendix.
# 50 ms, Molecular Probes, Eugene, Oregon) (5). Cells were incubated in calcium-free HBS (supplemented with 3 mM EGTA and 200 nM JC-1) for at least 3 h prior to measuring changes in Ψm. Sodium cyanide (NaCN, 40 mM, mitochondrial electron transport blocker) was added at the end of each experiment to collapse Ψm, confirming that the JC-1 signal was indicative of Ψm.
# Additionally, individual 580 nm and 535 nm wavelength signals were assessed in each experiment to determine whether the fluorescent indicator was accurately measuring Ψm. […] Ratiometric JC-1 or flavoprotein fluorescent signals were quantified by manually tracing myocytes and subtracting an equivalent background region […]
# [2] = tested on: myocytes isolated from wt and cTnI-G203S mice; assay: Mitochondrial membrane potential (JC-1) in myocytes isolated from treated mice; format: in vivo, mouse
# Description: Male mice expressing the human cTnI gene encoding the human disease-causing mutation cTnI-G203S were used for all studies. […] Male mice expressing the normal human cTnI gene were used as controls (wt). Ten-week-old mice were used for in vitro studies. For in vivo studies, 20- or 30-wk-old cTnI-G203S mice were treated with 10 μM AID-TAT or AID[S]-TAT via intraperitoneal injection, 3×/wk/5 wk. In vivo dose of AID-TAT or AID[S]-TAT (10 μM) was calculated based on blood volume, equating to ∼2 mg/kg total BW. Male animal models were used to eliminate potential differences in responses due to sex. Experiments were performed in a total of 21 wt (AID[S]-TAT), 6 wt (AID-TAT), 15 cTnI-G203S (AID[S]-TAT), and 26 cTnI-G203S (AID-TAT) mice. All animals were randomly assigned to treatment groups.
# Fluorescence was measured on a Hamamatsu Orca ER digital camera attached to an inverted Nikon TE2000-U microscope. Fluorescent indicator 5,5′,6,6′-tetrachloro-1,1′,3,3′-tetraethylbenzimidazolylcarbocyanine iodide was used to measure Ψm in cardiac myocytes, as previously described (JC-1, Molecular Probes) ([61]). Autofluorescence was used to measure flavoprotein oxidation in cardiac myocytes based on previously described methods ([13], [29], [62]). Responses to drugs were reported as a percentage increase from the basal average.
# Cells were incubated in calcium-free HBS (supplemented with 3 mM EGTA and 200 nM JC-1) for at least 3 h prior to measuring changes in m. Sodium cyanide (NaCN, 40 mM, mitochondrial electron transport blocker) was added at the end of each experiment to collapse m, confirming that the JC-1 signal was indicative of m.
# Additionally, individual 580 nm and 535 nm wavelength signals were assessed in each experiment to determine whether the fluorescent indicator was accurately measuring m. Autofluorescence was used to measure flavoprotein oxidation in cardiac myocytes based on previously described methods (ex = 480 nm, em = 535 nm, interval = 1 min, exposure = 1.5 seconds) (4, 6, 7). Carbonyl cyanide-4-(trifluoromethoxy)phenylhydrazone (FCCP, 50 μM, mitochondrial electron transport chain uncoupler) was added at the end of each experiment to increase flavoprotein oxidation confirming signal was mitochondrial in origin. Ratiometric JC-1 or flavoprotein fluorescent signals were quantified by manually tracing myocytes and subtracting an equivalent background region
# Responses to drugs were reported as a percentage increase from the basal average. […]
sequence,measurement,setting,value
QQLEEDLKGYLDWITQAE [AID-TAT],"Cy7 decay (clearance) in left or right kidney, or liver",[1],no significant difference
same,cardiac Ψm and mitochondrial metabolic activity (flavoprotein oxidation) following BayK(−),[2]; myocytes from cTnI-G203S mice with established cardiomyopathy treated 10 μM 3×/wk/5 wk from 30 wk,does not restore cardiac Ψm or mitochondrial metabolic activity to wt levels
same,increase in Ψm (JC-1) following BayK(−),[2]; myocytes from precardiomyopathic cTnI-G203S mice treated 10 μM i.p. 3×/wk/5 wk from 20 wk,reduced this response to a level comparable to that observed in wt myocytes

# Source: PMC7502707, “Characterization and validation of a preventative therapy for hypertrophic cardiomyopathy in a murine model of the disease” (Proceedings of the National Academy of Sciences of the …, 2020)
